Test results: patent US8415156B2, “Recombinant laminin-521” (Biolamina AB, priority 2010, dated 2013)

Legend:
[1] = test system: hES cells; assay: Cell survival assay, 24 hours (Example 2); format: cell-based, human
Description: Tissue cell culture plates were coated overnight at 4° C. with sterile solutions of the ECM proteins, such as human recombinant LN-521, all at a concentration of 30 μg/ml (5 μg/cm^2). Control plates were coated with Matrigel according to the STEMCELL Technologies' instructions. Prior to use, dishes were pre-warmed in an incubator for one hour after which prewarmed O3 medium was added without additional washing of the dish. After applying a fresh LN-521 solution to a new dish, the remaining LN-521 solution could be used at least once more. All the adhesion, survival, and inhibition of survival experiments were carried out using fresh coating materials.
Briefly, 96-well plates were coated by extracellular matrix proteins as described above and blocked by O3 medium containing bovine serum albumin. The ES cells were plated at cell density of 50,000 cells/cm^2 onto extracellular matrix-coated plates and left to adhere for 1 hour in a cell incubator. After that the plates were washed 3 times with the medium to remove the non-adherent cells, and then the adherent cells were fixed for 20 minutes by 5% glutaraldehyde, stained by 0.1% Crystal Violet. (Kebo Lab, Spanga, Sweden, www.kebolab.se). After one hour and 3 washes with water, Crystal Violet was extracted with 10% acetic acid and quantified by measuring optical density at 570 nm. All the experiments were performed in quadruplicate.
The survival assay was performed as described for the cell adhesion assay above, except that the cells were left in the cell incubator for 24 hours. For inhibition of survival assay, the cells were kept in a medium with function blocking antibodies at the concentrations recommended by the manufacturer or pathway inhibitors at concentrations indicated in the text for 30 minutes, and then plated on the coated dishes. All the experiments were performed in quadruplicate.
Pluripotent hES cells express α1, α5, β1, β2 and γ1 laminin chains. To compare the adhesion and clonal survival of hES cells plated from single cell suspension to different coating substrata, hES cells growing as monolayers on LN-511 or as clusters on a feeder layer were trypsinized into single cell suspension in O3 medium and plated on cell culture dishes coated with Matrigel, LN-111, LN-511, LN-521 or a mixture of LN-511 and LN-521, in the absence or presence of a ROCK inhibitor (Y-27632) and analyzed after 24 hours.

[2] = test system: myosin light chain (MLC); assay: Western blot of phosphorylated myosin light chain; format: cell-based, human; conditions: one and six hours after plating
Description: HS181 cells were trypsinized into single cell suspension as described above. For inhibition experiments, the cells were kept in O3 medium with blocking antibodies or pathway inhibitors for 30 minutes and then 450K cells were plated on 35 mm dishes precoated with the appropriate matrix coating. For other experiments, same number of cells was plated directly after trypsinization. […] After two washings in ice-cold PBS, the plates with cells were snap frozen in liquid nitrogen and stored at −80° C. To prepare samples for western blots and ELISA, the plates were slowly thawed and kept on ice with 100-150 μl of lysis buffer (50 mM Tris-HCl, pH7.5, 150 mM NaCl, 0.5% deoxycholate, 0.5% SDS, 1% Triton X-100, 1% Igepal, Complete™ (Roche) and Phospho-Stop™ (Roche)) on top. Then, the cells were scraped, pipetted and sheared through a 27G ¾″ needle. After that, the cell pellets were clarified by centrifugation at 16,100 rcf for 15 minutes at 4° C. For western blots, 4-12% gradient gels were used for SDS electrophoresis and the proteins were transferred to PVDF membranes. The membrane was hybridized with the antibody of interest according to the manufacturer's instructions. Chemoluminescent HRP-substrate from Amersham Biosciences was used for visualization. For the densitometry analysis the films were scanned at 2,400 dpi and analyzed by the Chemilmager5500 program (1D-Multi Line densitometry mode). […]

[3] = test system: OCT4; assay: FACS analysis for Oct4; format: cell-based, human; conditions: after several single cell suspension passages, O3 medium without additives
Description: OCT4 expression was analyzed as described in Ludwig, T. E. et al. Derivation of human embryonic stem cells in defined conditions. Nat. Biotechnol. 24, 185-187 (2006). Cells were run on FACSCalibur Flow Cytometer (Becton Dickinson). Data were analyzed with CellQuest software (Becton Dickinson).

[4] = test system: human ES cells; assay: Long-term culture with single cell dissociation passaging (Example 1); format: cell-based; conditions: for proliferation rate compared with Matrigel / classical methods: single cell suspension passaging vs passaging in clumps
Description: Human ES cells were cultured on r-laminin-521-coated laboratory dishes in chemically defined O3 medium (described in Rodin et al., Nature Biotechnol., vol. 28, pp. 611-615 (2010)) at 37° C. in 5% CO2. Cells were routinely passed once every 10-12 days by exposure to Trypsin-EDTA solution (GIBCO Invitrogen) for 5 minutes at 37° C. They were then gently pipetted to break into single-cell suspension and defined trypsin inhibitor (GIBCO Invitrogen) was added. The cell suspension was centrifuged […], the supernatant discarded, the cell pellet resuspended in prewarmed O3 medium, and cells were then passed through a 40 μm sieve. After that cells were plated on new r-laminin-521-coated dishes at a concentration 30 Kcells/cm^2 (1:25-1:30 split ratio). Cells were fed once a day with fresh medium prewarmed in an incubator for 1 hour, except for the first day after a passage, when only a few drops of fresh medium were added. Control cells of the same line were cultured on Matrigel (BD Biosciences) in O3 medium as described in Rodin et al., Nature Biotechnol., vol. 28, pp. 611-615 (2010). Control cells were passaged in pieces.

[5] = test system: hES cells; assay: Clonal survival of individualized hES cells (Example 4); format: cell-based, human; conditions: mTeSR1; 250 cells per cm^2; 5 days; alkaline phosphatase staining
Description: hES cells were plated in mTeSR1 medium on different coatings at a density of 250 cells per cm^2 and monitored after 5 days in culture using an alkaline phosphatase staining kit.
Next, combinations of laminin-521 and E-Cadherin were tested to determine whether the combinations could sustain clonal survival of the cells. Fixed amounts of laminin-521 were used for the cell culture dish coating in combination with titrated E-Cadherin.
Additional tests were performed to test the effects of various modifications to the mTeSR1 medium. A mixture of E-Cadherin to laminin-521 in a ratio of about 1:10 w/w was used to coat the plates. […] Time-lapse photography of the cells confirmed that laminin-521/E-Cadherin coatings facilitated cell survival through proliferation of the single cells, not through the aggregation of different cells.

[6] = test system: human iPS ChiPSW and CutB1.2 cells; assay: Long-term self-renewal of human iPS cells on LN-521; format: cell-based; conditions: mTeSR1

Question: How did the “survival of Y-27632 treated human ES cells on LN-521 compared with Matrigel” value ([1]; 10 μM of Y-27632, 40,000 cells per 1 cm^2) turn out when “LN-521: protein formed by joining α5, β2 and γ1 chains together; human recombinant, produced in HEK293 cells” was run?
Answer: survived better

Question: And the “survival on LN-521 compared with LN-511” value ([1]; 24 hours, absence of ROCK inhibitor)?
Answer: significantly higher

Question: What about the “cell shape of cells growing on LN-521 24 hours after plating” value ([1]; LN-521 row: absence of ROCK inhibitor, Y-27632 row: presence of ROCK inhibitor) of the same substance?
Answer: round

Question: And the “survival relative to Matrigel, exogenous bFGF removed” value ([1]; O3 medium without exogenous bFGF)?
Answer: 20 times

Question: And the “survival of hES cells plated from single cell suspension after 24 hours” value ([1]; O3 medium, absence of ROCK inhibitor)?
Answer: did so as single cells

Question: What about the “survival 24 hours after plating in medium lacking all growth factors of the TeSR1 formulation” value ([1]; no bFGF, LiCl, GABA, pipecolic acid and TGFβ) of the same substance?
Answer: survived

Question: What about the “phosphorylation of MLC compared with cells on Matrigel and LN-111” value [2] of the same substance?
Answer: even higher

Question: What about the “percentage of Oct4 positive (pluripotent) cells compared with Matrigel” value [3] of the same substance?
Answer: much higher percentage

Question: And the “passages in single cell suspension giving the same number of cell divisions as cultures on Matrigel after 20 passages” value ([4]; 3 passages = 1 month, Matrigel passaged in pieces, 20 passages (3 months / 100 days))?
Answer: 3 passages

Question: And the “passages with robust proliferation at a stable and high rate” value ([4]; single cell passaging every 10-12 days, 1:25 to 1:30 ratios, 3 months)?
Answer: at least 9 passages

Question: And the “proliferation rate compared with Matrigel / classical methods” value [4]?
Answer: much faster rate

Question: And the “proliferation rate compared with Matrigel / classical methods” value ([4]; listed as laminin-521)?
Answer: higher rate

Question: And the “clonal survival of individualized hES cells” value [5]?
Answer: Neither laminin-521 nor E-Cadherin alone permitted efficient clonal survival

Question: What about the “passages cultured, ChiPSW cells” value [6] of the same substance?
Answer: 3 passages

Question: What about the “passages cultured, CutB1.2 iPS cells” value [6] of the same substance?
Answer: 5 passages
